Data set [1] can be described thus: Plasma carnitine and O-acetylcarnitine levels in longitudinal samples of autistic subjects versus controls (FIG. 4). The class given is in vivo, human. The conditions noted are these: all ASD subjects taking acetyl-carnitine. An excerpt: FIG. 4 is a graph illustrating levels of carnitine and O-acetylcarnitine in longitudinal samples collected over the course of one year from individual subjects diagnosed with autism versus controls. Values are control normalized and expressed as mean+/−SEM, n=3 for each child, n=30 for controls, *, p<0.05 vs. control;
(§1) Sample Collection. Three plasma samples were collected from 15 clinically diagnosed ASD subjects and 12 non-ASD controls over a 12 month period (six month interval between samplings). Four subjects were treated with carnitine (A09, A11, A13, A15). Table 1 outlines the clinical characteristics of the subjects studied. Social cognition scores were determined using methods known in the art.
(§2) Acetyl-carnitine is not approved nor has it been proven to be effective in ASD. To illustrate the utility of a method of monitoring ASD therapy as disclosed herein, the diagnostic ASD biomarkers described above were quantified in subjects taking acetyl-carnitine supplements. FIG. 4 illustrates the carnitine and acetyl carnitine levels in all of the subjects. […] All of the subjects taking acetyl-carnitine had elevated levels of both carnitine and acetyl-carnitine.

Data set [2] relates to autism biomarkers. Briefly: Monitoring the biochemical efficacy of carnitine supplementation on autism biomarkers in plasma (FIG. 5). The data set is classed as in vivo, human.
Description: FIG. 5 is a graph illustrating levels of key DHA and AA containing PlsEtn and VLCFA containing PtdEtn in longitudinal samples collected over the course of one year from autistic subjects taking carnitine supplements [n=12 (4×3)] vs. subjects not taking carnitine supplements [n=33 (11×3)] and vs. controls [n=30 (10×3)]. Values control-normalized and expressed as mean+/−SEM of the ratio to PtdEtn 16:0/18:0, *, p<0.05 vs. control, #, p<0.05 vs. autism, no carnitine; and
as §1
LC-MS/MS flow injection analyses. Analyses were performed using a linear ion trap mass spectrometer (4000 Q TRAP, Applied Biosystems) coupled with an Agilent 1100 LC system. Sample was prepared by adding 15 μL of internal standard (5 μg/mL of (24-^13C)-Cholic Acid (Cambridge Isotope Laboratories, Andover, Mass.) in methanol) to 120 μL ethyl acetate fraction of each sample. 100 μl of sample was injected by flow injection analysis (FIA), and monitored under negative APCI mode. The method was based on multiple reaction monitoring (MRM) of one parent/fragment transition for each metabolite and (24-^13C)-Cholic Acid. Each transition was scanned for 70 ms. 10% EtOAc in MeOH at a flow rate of 360 μl/min was used as the mobile phase. The source parameters were set as follows: CUR: 10.0, CAD: 8, NC: −4.0, TEM: 400, GS1: 30, GS2: 50, interface heater on. The compound parameters were set as follows: DP: −120.0, EP: −10, NC: −4.0, CE: −40, CXP: −15. A standard curve was generated for all analytes to verify instrument linearity by serial dilution of a healthy normal serum extract with constant concentration of (24-^13C)-Cholic Acid. All samples were analyzed in a randomized blinded manner and were bracketed by known serum standard dilutions. All standard curves had r^2 values >0.98.
as §2
Comparison of the plasma levels of the eight most descriptive metabolites between the carnitine+/−autistic subjects and controls, determined that the effect of carnitine on the autism biomarkers was striking (FIG. 5). […] However, the rate of elongation and desaturation of mono- and di-unsaturated fatty acid precursors appear to be unaffected and a compensatory elevation in AA appears to occur.

The mark [3] stands for this setting: autistic subjects taking carnitine vs not taking and vs controls.

The results in this text go back to patent US8273575B2, “Methods for the diagnosis, risk assessment, and monitoring of autism spectrum disorders” (Phenomenome Discoveries Inc., priority 2007, dated 2012).

`C[N+](C)(C)CC(O)CC(=O)[O-]` (centres unmarked) [carnitine]: in data set [1], the “Plasma levels in subjects taking acetyl-carnitine” value is “elevated”. In data set [2], the “Levels of AA-PtdEtn (20:4) in subjects taking carnitine” value was “significantly elevated”. Moreover, in data set [2] (setting [3]), the “Effect on DHA-PlsEtn” value is listed as “Complete normalization”, the “Effect on DHA-PtdEtn” value is listed as “Complete normalization”, the “Effect on saturated VLCFA (28:0)” value is reported as “Complete normalization” and the “Effect on the DHA precursor (24:6)” value is on record as “Complete normalization”. Further, in data set [2] (carnitine supplementation), the “Effect on 26:3 PdtEtn” value is recorded as “no significant effect” and the “Effect on 28:1 PdtEtn” value is reported as “no significant effect”.
